Test results published in ChEMBL document CHEMBL4265964, “Discover the leading compound of 4β-S-(5-fluorobenzoxazole)-4-deoxy-4'-demethylepipodophyllotoxin with millimolar-potency toxicity by modifying the molecule structure of 4'-demethylepipodophyllotoxin” (Eur J Med Chem, 2018).
Activity calls are given as the source filed them. The rule behind the calls is not given here.

Columns and labels:
[1] = Cytotoxicity against human H8 cells after 48 hrs by MTT assay; format: cell-based
[2] = test system: L02; test: Induction of apoptosis in human HL7702 cells assessed as early apoptotic cells at 100 uM after 42 hrs by Annexin V-FITC/propidium iodide staining based flow cytometry (reference value: 0.3%); format: cell-based; conditions: l02, 42 h
[3] = test system: HMEC; test: Cytotoxicity against HMEC after 48 hrs by MTT assay; format: cell-based; conditions: Homo sapiens
[4] = Induction of apoptosis in human HL7702 cells assessed as live cells at 100 uM after 42 hrs by Annexin V-FITC/propidium iodide staining based flow cytometry (reference value: 98.5%); format: cell-based; conditions: HL7702 (L02) cells, read-out: Activity
[5] = test system: HepG2; test: Induction of apoptosis in human HepG2 cells assessed as late apoptotic cells at 10 uM after 42 hrs by Annexin V-FITC/propidium iodide staining based flow cytometry (reference value: 0.9%); format: functional
[6] = test system: HepG2; test: Cell cycle arrest in human HepG2 cells assessed as accumulation at G2/M phase at 1 uM after 42 hrs by propidium iodide staining based flow cytometry relative to control; format: functional
[7] = test system: HepG2; test: Induction of apoptosis in human HepG2 cells assessed as live cells at 10 uM after 42 hrs by Annexin V-FITC/propidium iodide staining based flow cytometry (reference value: 98.2%); format: functional
[8] = test system: L02; test: Cytotoxicity against human HL7702 cells after 48 hrs by MTT assay; format: cell-based; conditions: L02, 48 h
[9] = test system: L02; test: Upregulation of SRSF3 expression in human HL7702 cells at 50 uM after 12 hrs by proteomic analysis relative to control; format: functional, cell-based
[10] = test system: L02; test: Induction of apoptosis in human HL7702 cells assessed as late apoptotic cells at 100 uM after 42 hrs by Annexin V-FITC/propidium iodide staining based flow cytometry (reference value: 1%); format: cell-based; conditions: l02, 42 h
[11] = test system: L02; test: Cell cycle arrest in human HL7702 cells assessed as accumulation at G2/M phase at 5 to 10 uM after 42 hrs by propidium iodide staining based flow cytometry relative to control; conditions: l02, 42 h
[12] = test system: A549; test: Cytotoxicity against human A549 cells after 48 hrs by MTT assay; format: functional, cell-based; conditions: A549, 48 h
[13] = test system: HepG2; test: Cell cycle arrest in human HepG2 cells assessed as accumulation at G2/M phase at 5 to 10 uM after 42 hrs by propidium iodide staining based flow cytometry; format: functional
[14] = species: Homo sapiens; test: Inhibition of human topoisomerase-2 assessed as reduction in relaxation of kinetoplast DNA at 200 uM after 30 mins by ethidium bromide staining based agarose gel electrophoresis method
[15] = test system: MCF7; test: Cytotoxicity against human MCF7 cells after 48 hrs by MTT assay; format: functional, cell-based; conditions: MCF7, 48 h
[16] = test system: L02; test: Upregulation of Akt expression in human HL7702 cells at 50 uM after 12 hrs by proteomic analysis relative to control; format: functional, cell-based
[17] = species: Homo sapiens; test: Inhibition of human topoisomerase-2 assessed as reduction in relaxation of kinetoplast DNA at 50 uM after 30 mins by ethidium bromide staining based agarose gel electrophoresis method
[18] = test system: L02; test: Upregulation of COX5A expression in human HL7702 cells at 50 uM after 12 hrs by proteomic analysis relative to control; format: functional, cell-based
[19] = test system: HeLa; test: Cytotoxicity against human HeLa cells after 48 hrs by MTT assay; format: functional, cell-based
[20] = test system: L02; test: Upregulation of PARK7 expression in human HL7702 cells at 50 uM after 12 hrs by proteomic analysis; format: functional, cell-based
[21] = test system: MRC5; test: Cytotoxicity against human MRC5 cells after 48 hrs by MTT assay; format: cell-based; conditions: MRC5, 48 h
[22] = test system: HepG2; test: Induction of apoptosis in human HepG2 cells assessed as early apoptotic cells at 10 uM after 42 hrs by Annexin V-FITC/propidium iodide staining based flow cytometry (reference value: 0.5%); format: functional
[23] = test system: L02; test: Induction of apoptosis in human HL7702 cells assessed as necrotic cells at 100 uM after 42 hrs by Annexin V-FITC/propidium iodide staining based flow cytometry (reference value: 0.2%); format: cell-based; conditions: l02, 42 h
[24] = test system: L02; test: Induction of DNA damage in human HL7702 cells assessed as gammaH2AX accumulation at 50 uM after 12 hrs by DAPI staining based immuno-fluorescence assay; format: cell-based; conditions: l02, 12 h
[25] = test system: L02; test: Upregulation of HMGB1 expression in human HL7702 cells at 50 uM after 12 hrs by proteomic analysis; format: functional, cell-based
[26] = test system: HepG2; test: Cytotoxicity against human HepG2 cells after 48 hrs by MTT assay; format: functional, cell-based; conditions: HepG2, 48 h
[27] = test system: HepG2; test: Induction of apoptosis in human HepG2 cells assessed as necrotic cells at 10 uM after 42 hrs by Annexin V-FITC/propidium iodide staining based flow cytometry (reference value: 0.3%); format: functional
[28] = species: Homo sapiens; test: Inhibition of human topoisomerase-2 assessed as reduction in relaxation of kinetoplast DNA at 100 uM after 30 mins by ethidium bromide staining based agarose gel electrophoresis method

SMILES: COc1cc([C@@H]2c3cc4c(cc3[C@@H](O[C@@H]3O[C@@H]5CO[C@@H](C)O[C@H]5[C@H](O)[C@H]3O)[C@H]3COC(=O)[C@H]23)OCO4)cc(OC)c1O [ETOPOSIDE]
- IC50 [1]: 75.4 µM
- Activity [2]: 37%
- IC50 [3]: 21.5 µM
- viability at 42 h, 100 µM [4]: 28%
- Activity [5]: 11%
- Activity [6]: 33%
- Activity [7]: 76.6%
- IC50 [8]: 24.6 µM
- Activity [9]: inactive
- Activity [10]: 32.8%
- Activity [11]: 64%
- IC50 [12]: 22.5 µM
- Activity [13]: Active
- inhibition [14]: Active
- IC50 [15]: 53.8 µM
- Activity [16]: inactive
- inhibition [17]: inactive
- Activity [18]: inactive
- IC50 [19]: 21.4 µM
- Activity [20]: inactive
- IC50 [21]: 33.5 µM
- Activity [22]: 7%
- Activity [23]: 2.2%
- Activity [24]: Toxic
- Activity [25]: inactive
- IC50 [26]: 20 µM
- Activity [27]: 5.4%
- inhibition [28]: Active
